Results taken from ChEMBL document CHEMBL1201862, “PubChem BioAssay data set” (2004).
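Interpolation was linear, between the two tested concentrations surrounding the appropriate level; five concentrations were tested over 48 hours in 96-well plates. GI50 is the concentration that inhibits growth by half.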 The source made the active and inactive calls. Rule as the data show it: active = GI50 up to about 1.1 µM and inactive = higher.

Columns and labels:
Assay in all cases: DTP human tumour cell line panel, 48 h
786-0 = system: 786-0
A498 = system: A498
A549 = system: A549
ACHN = system: ACHN
CAKI-1 = system: CAKI-1
CCRF-CEM = system: CCRF-CEM
COLO 205 = system: COLO 205
DLD-1 = system: DLD-1
DMS-114 = system: DMS-114
DMS-273 = system: DMS-273
EKVX = system: EKVX
HCC 2998 = system: HCC 2998
HCT-116 = system: HCT-116
HCT-15 = system: HCT-15
HL-60 = system: HL-60
HOP-62 = system: HOP-62
HOP-92 = system: HOP-92
HT-29 = system: HT-29
IGROV-1 = system: IGROV-1
K562 = system: K562
KM-20L2 = system: KM-20L2
KM12 = system: KM12
LOX IMVI = system: LOX IMVI
LXFL 529 = system: LXFL 529
M14 = system: M14
M19-MEL = system: M19-MEL
MOLT-4 = system: MOLT-4
Malme-3M = system: Malme-3M
NCI-H226 = system: NCI-H226
NCI-H23 = system: NCI-H23
NCI-H460 = system: NCI-H460
NCI-H522 = system: NCI-H522
OVCAR-3 = system: OVCAR-3
OVCAR-4 = system: OVCAR-4
OVCAR-5 = system: OVCAR-5
OVCAR-8 = system: OVCAR-8
RPMI-8226 = system: RPMI-8226
RXF 393 = system: RXF 393
SF-268 = system: SF-268
SF-295 = system: SF-295
SF-539 = system: SF-539
SK-MEL-28 = system: SK-MEL-28
SK-MEL-2 = system: SK-MEL-2
SK-MEL-5 = system: SK-MEL-5
SK-OV-3 = system: SK-OV-3
SN12C = system: SN12C
SNB-19 = system: SNB-19
SNB-75 = system: SNB-75
SNB-78 = system: SNB-78
SR = system: SR
SW-620 = system: SW-620
TK-10 = system: TK-10
U-251 = system: U-251
UACC-257 = system: UACC-257
UACC-62 = system: UACC-62
UO-31 = system: UO-31
XF498 = system: XF498
HOP-18 = system: HOP-18

Measured: GI50

COc1cc2c(c(OC)c1OC)-c1ccc(SC)c(=O)cc1[C@@H](NCc1ccc(C#N)cc1)CC2
4.72 nM: HCT-15
active: 786-0 5.28 nM | A498 5.89 nM | A549 4.11 nM | ACHN 6.12 nM | CAKI-1 7.01 nM | CCRF-CEM 4.14 nM | COLO 205 3.5 nM | DLD-1 3.48 nM | DMS-114 2.36 nM | DMS-273 3.4 nM | EKVX 7.26 nM | HCC 2998 2.91 nM | HCT-116 3.87 nM | HL-60 3.01 nM | HOP-62 4 nM | HOP-92 30.7 nM | HT-29 2.39 nM | IGROV-1 4.12 nM | K562 3.83 nM | KM-20L2 1.94 nM | KM12 4.69 nM | LOX IMVI 5.21 nM | LXFL 529 5.3 nM | M14 3.26 nM | M19-MEL 3.61 nM | MOLT-4 5.78 nM | Malme-3M 5.64 nM | NCI-H226 3.91 nM | NCI-H23 2.74 nM | NCI-H460 3.79 nM | NCI-H522 2.78 nM | OVCAR-3 3.21 nM | OVCAR-5 7.36 nM | OVCAR-8 4.1 nM | RPMI-8226 3.15 nM | RXF 393 1.85 nM | SF-268 6.12 nM | SF-295 3.69 nM | SF-539 2.52 nM | SK-MEL-28 5.78 nM | SK-MEL-2 7.03 nM | SK-MEL-5 3.65 nM | SK-OV-3 3.1 nM | SN12C 4.49 nM | SNB-19 48.8 nM | SNB-75 3.07 nM | SNB-78 5.31 nM | SR 2 nM | SW-620 3.66 nM | TK-10 8.11 nM | U-251 3.1 nM | UACC-257 6.71 nM | UACC-62 2.64 nM | UO-31 76.4 nM | XF498 3.21 nM
inactive: OVCAR-4 3740 nM

COc1cc(CCc2cccnc2)cc(OC)c1OC
> 100000 nM: HCT-15
inactive: 786-0 > 100000 nM | A498 > 100000 nM | A549 > 100000 nM | ACHN > 100000 nM | CAKI-1 > 100000 nM | CCRF-CEM > 100000 nM | COLO 205 > 100000 nM | DLD-1 > 100000 nM | DMS-114 77400 nM | DMS-273 > 100000 nM | EKVX > 100000 nM | HCT-116 > 100000 nM | HL-60 > 100000 nM | HOP-18 > 100000 nM | HOP-62 > 100000 nM | HOP-92 30300 nM | HT-29 > 100000 nM | IGROV-1 > 100000 nM | K562 > 100000 nM | KM-20L2 > 100000 nM | KM12 > 100000 nM | LOX IMVI > 100000 nM | LXFL 529 > 100000 nM | M14 > 100000 nM | M19-MEL > 100000 nM | MOLT-4 > 100000 nM | Malme-3M > 100000 nM | NCI-H226 > 100000 nM | NCI-H23 > 100000 nM | NCI-H460 > 100000 nM | NCI-H522 65800 nM | OVCAR-3 > 100000 nM | OVCAR-4 > 100000 nM | OVCAR-5 38500 nM | OVCAR-8 > 100000 nM | RPMI-8226 > 100000 nM | RXF 393 > 100000 nM | SF-268 > 100000 nM | SF-295 > 100000 nM | SF-539 > 100000 nM | SK-MEL-28 > 100000 nM | SK-MEL-5 > 100000 nM | SN12C > 100000 nM | SNB-19 > 100000 nM | SNB-75 51100 nM | SNB-78 > 100000 nM | SW-620 > 100000 nM | TK-10 > 100000 nM | U-251 > 100000 nM | UACC-257 > 100000 nM | UACC-62 > 100000 nM | UO-31 > 100000 nM
